Results reported in article PMC7934871 (JCI Insight, 2021).

Test system: HCT116 xenograft tumors
Assay: HCT116 xenograft in NSG mice, systemic (i.v.) treatment
Type: in vivo, mouse
Procedure: (A) Growth kinetics of HCT116 tumors in NSG mice systemically treated with acet.-STAT3 peptides (1 mg/kg), with or without PS oligonucleotide conjugation, every other day (n = 5). SD is shown. Two-way ANOVA (Tukey’s multiple comparisons test) was used for analyzing the kinetics of tumor growth over the treatment period; ****P < 0.001. […] Lower 2 panels show input total STAT3 protein. […] Penetration of FAM-labeled PS-acet.-STAT3 peptide into tumors was also assessed by immunostaining followed by confocal imaging (second panel from top). The images are representative of 5 tumors per experimental group in A. Scale bars: 50 μm. Insets: original magnification, ×20. The graphs show the quantification for FAM and Ki-67 expression levels and of the mean vessel diameter (data include 5 fields of view per group). SD is shown. One-way ANOVA; ****P < 0.001; ***P < 0.005.
Mouse care and experimental procedures were performed under pathogen-free conditions in accordance with established institutional guidance and approved IACUC protocols from Research Animal Care Committee of the City of Hope. For s.c. tumor challenge, 5 × 10^6 HCT116 cells were injected into NSG mice from The Jackson Laboratory or animal resource core facility at the City of Hope. After tumors reached an average size of 80~100 mm^3, mice were locally or intravenously treated with 1 mg/kg of PO- or PS-peptides (Anaspec) every day or every other day. Control animals were treated with the equal volume of HBSS (Invitrogen, Thermo Fisher Scientific). Tumor growth was measured by a digital caliper every other day. To study the effects of the modified peptides at protein and gene levels, mice were euthanized 4–6 weeks after tumor injection. B16 melanoma lung metastasis was performed by injecting 0.5 × 10^6 B16 cells into bloodstream of C57BL/6 mice (The Jackson Laboratory). One day after tumor challenge, mice were treated intravenously (retro-orbitally) with 1 mg/kg of PO- or PS-acet.-STAT3, PS-unacet.-STAT3, or PS-STAT3-K685R peptides every other day until the endpoint as indicated. Control mice were treated with HBSS. Lungs were excised from the mice, and B16 nodules were visualized by gp100 staining. Lungs were then analyzed for immune responses by immunostaining followed by confocal imaging. For mouse PDAC model, 5 × 10^6 KPC mouse cells were mixed with Matrigel and subcutaneously injected into C57BL/6 mice (The Jackson Laboratory). […] Control animals were treated with the equal volume of HBSS (Invitrogen, Thermo Fisher Scientific). Tumor growth was measured by a digital caliper every other day. To study the effects of the modified peptides at protein and gene levels, mice were euthanized at the endpoint as indicated.

**Q.** “PDIPKEEAFGK685(Ac)YCRPESQEHPC-linker-T*C*C*A*T*G*A*G*C*T*T*C*C*T*G*A*T*G*C*T [PS-acet.-STAT3 peptide]” was tested. Which tumor growth (HCT116 s.c. in NSG mice, 1 mg/kg i.v. every other day, n = 5) did it give?
**A.** significantly reduced

**Q.** What about the “STAT3 activation in tumor xenografts” value (HCT116 tumor tissues, immunoprecipitation and Western blotting) of the same substance?
**A.** downregulated

**Q.** What about the “cell death in tumor sections (H&E staining)” value (HCT116 xenograft) of the same substance?
**A.** massive cell death

**Q.** What about the “cell proliferation marker Ki-67 and tumor angiogenesis marker CD31 in tumor tissues” value (HCT116 xenograft, IF and confocal) of the same substance?
**A.** significant reduction

**Q.** And the “proapoptotic genes (TP53, CASP9) in tumor tissues” value (HCT116 xenograft, qRT-PCR)?
**A.** significantly upregulated

**Q.** And the “expression of STAT3 target genes MMP-9 (MMP9) and BCL-XL (BCL2L1) in tumors” value (HCT116 xenograft, qRT-PCR and Western blotting)?
**A.** significantly reduced
